Test results reported in patent US20130143881A1, “Hydrated Crystalline Forms of N-[3-fluoro-4-(oxy)phenyl]-N'-(4-fluorophenyl)cyclopropane-1,1-dicarboxamide” (Exelixis, Inc., priority 2010, published 2013).

Assay: Gravimetric vapor sorption (GVS) study
Type: physicochemical
Details: 25° C. and 90 percent humidity
Method: A gravimetric vapor sorption (GVS) study was run using a standard procedure. Samples were run on a dynamic vapor sorption analyzer (Surface Measurement Systems) running DVSCFR software. Sample sizes were typically 10 mg. A moisture adsorption desorption isotherm was performed as outlined below. The standard isotherm experiment, performed at 25° C., is a two-cycle run, starting at 40 percent RH, increasing humidity to 90 percent RH, decreasing humidity to 0 percent RH, increasing humidity again to 90 percent RH, and finally decreasing humidity to 0 percent RH in 10 percent RH intervals.

COc1cc2c(Oc3ccc(NC(=O)C4(C(=O)Nc5ccc(F)cc5)CC4)cc3F)ccnc2cc1OCCCN1CCOCC1 [crystalline Compound (I), N-[3-fluoro-4-({6-(methyloxy)-7-[(3-morpholin-4-ylpropyl)oxy]quinolin-4-yl}oxy)phenyl]-N′-(4-fluorophenyl)cyclopropane-1,1-dicarboxamide crystalline hydrate]
weight gain (GVS moisture sorption): 2.5%
